{"source": "patent US9645154B2", "about": "“Method for detecting cancer cell” (ARKRAY, Inc., priority 2010, dated 2017)", "key": {"[1]": {"test_system": "Blood cells", "assay": "Aminolevulinic acid (with FeCl2 and ascorbic acid at the same concentration) labeling, fluorescence microscopy image analysis (false-positive/negative rate)", "assay_type": "cell-based, human", "excerpt": "Blood was collected from a human subject using a vacuum blood collection tube (with EDTA•2K). Blood cells were separated using HetaSep (STEMCELL Technologies) in accordance with manufacturer's instructions.\nWhen performing the hemolyzing treatment, the collected blood cell fraction was hemolyzed using ammonium chloride (STEMCELL Technologies) at room temperature according to the manufacture's manuals.\nThe number of the cells was counted using a hemacytometer in accordance with the conventional method, and then 10^5 to 10^6 cells per sample (cell suspension) was aliquoted. The sample was centrifuged to remove the supernatant. Subsequently, aminolevulinic acid 5-AMINOLEVULINATE HYDROCHLORIDE (trade name, Cosmo Bio Co., Ltd., at the final concentration given in Table 7 or 8) dissolved in Dulbecco's PBS (+) and FeCl2 and ascorbic acid having the same concentration as that of aminolevulinic acid, respectively, were added thereto, and the cells were suspended well. The number of the cells was adjusted, and then the cells were added dropwise to a 384-well plate. The plate was centrifuged to spin down the cells. The image was captured with a fluorescence microscope (Nikon Corp.).\nThe wavelengths for the fluorescence filter set: EX (excitation wavelength): 402±7.5, DM: 430 or longer, BA (fluorescence wavelength): 625±15.\nThe acquired images were analyzed using an image analysis software NIS-ELEMENTS (trade name, Nikon Corp.) to evaluate the fluorescence intensity of the cell."}, "[2]": {"test_system": "human breast adenocarcinoma cells (MCF-7)", "assay": "Fluorescence values of cell suspension reacted with aminolevulinic acid (i-densy)", "assay_type": "cell-based", "conditions": "1 mM, 37° C.", "excerpt": "In accordance with the conventional method, human breast adenocarcinoma cells (cell line name: MCF-7; DS Pharma Biomedical Co., Ltd.) in culture was harvested with trypsin (Invitrogen). The cancer cell suspension harvested was centrifuged, and the supernatant was removed. The cells were resuspended with Dulbecco's PBS (+) (Nissui Pharmaceutical Co., Ltd.) and centrifuged, and the supernatant was removed again.\nThe number of the cells was counted using a hemacytometer in accordance with the conventional method, and then 2.8×10^5 cells per sample was aliquoted. […]\nThe fluorescence values of the cell suspension were measured using an i-densy (ARKRAY, Inc) at 15 minutes, 30 minutes, 60 minutes and 90 minutes after the start of the reaction. Conditions for fluorescence value measurement are as follows: 40° C. in the temperature regulated and light-intensity mode, Gain “3”, LED1 (390±20 nm for excitation)—PD3 (642.5±57.5 nm for detection).\nIn FIG. 7, the vertical axis represents fluorescence values, and the horizontal axis represents the reaction time. The solid squares represent fluorescence values obtained from the sample using Dulbecco's PBS (−) containing no Mg and Ca ions. The solid triangles represent fluorescence values obtained from the sample using Dulbecco's PBS (+) containing Mg and Ca ions. […]"}, "[3]": {"conditions": "hemolyzed, 0.3 mM, 60 min, 37° C., threshold value 198 (Gastric cancer)"}, "[4]": {"conditions": "hemolyzed, 0.3 mM, 60 min, 37° C., threshold value 203 (Fibrosarcoma)"}, "[5]": {"conditions": "hemolyzed, 0.3 mM, 60 min, 37° C., threshold value 207 (Colon adenocarcinoma)"}, "[6]": {"conditions": "hemolyzed, 0.3 mM, 60 min, 37° C., threshold value 212 (Alveolar epithelial cancer)"}, "[7]": {"conditions": "hemolyzed, 0.3 mM, 60 min, 37° C., threshold value 265 (Prostate cancer)"}, "[8]": {"conditions": "hemolyzed, 0.3 mM, 60 min, 37° C., threshold value 268 (Breast adenocarcinoma)"}, "[9]": {"conditions": "hemolyzed, 0.1 mM, 37° C., 60 min"}, "[10]": {"conditions": "hemolyzed, 0.3 mM, 37° C., 60 min (concentration series)"}, "[11]": {"conditions": "hemolyzed, 1 mM, 37° C., 60 min"}, "[12]": {"conditions": "hemolyzed, 4° C., 0.3 mM, 60 min"}, "[13]": {"conditions": "hemolyzed, 23° C., 0.3 mM, 60 min"}, "[14]": {"conditions": "hemolyzed, 37° C., 0.3 mM, 60 min (temperature series)"}, "[15]": {"conditions": "hemolyzed, 30 min, 0.3 mM, 37° C."}, "[16]": {"conditions": "hemolyzed, 60 min, 0.3 mM, 37° C. (time series)"}, "[17]": {"conditions": "hemolyzed, 120 min, 0.3 mM, 37° C."}, "[18]": {"conditions": "without hemolyzing treatment, 0.1 mM, 37° C., 60 min"}, "[19]": {"conditions": "without hemolyzing treatment, 0.3 mM, 37° C., 60 min (concentration series)"}, "[20]": {"conditions": "without hemolyzing treatment, 1 mM, 37° C., 60 min"}, "[21]": {"conditions": "without hemolyzing treatment, 4° C., 0.3 mM, 60 min"}, "[22]": {"conditions": "without hemolyzing treatment, 23° C., 0.3 mM, 60 min"}, "[23]": {"conditions": "without hemolyzing treatment, 37° C., 0.3 mM, 60 min (temperature series)"}, "[24]": {"conditions": "without hemolyzing treatment, 30 min, 0.3 mM, 37° C."}, "[25]": {"conditions": "without hemolyzing treatment, 60 min, 0.3 mM, 37° C. (time series)"}, "[26]": {"conditions": "without hemolyzing treatment, 120 min, 0.3 mM, 37° C."}}, "data": [{"smiles": "NCC(=O)CCC(=O)O", "note": "[aminolevulinic acid, 5-amino-4-oxopentanoic acid]", "values": [{"measurement": "Negative rate (Blood cells (fresh blood))", "setting": "[1]; [3]", "value": 95.2, "unit": "%"}, {"measurement": "Positive rate (Blood cells (fresh blood))", "setting": "[1]; [3]", "value": 4.8, "unit": "%"}, {"measurement": "Negative rate (Blood cells (fresh blood))", "setting": "[1]; [4]", "value": 95.2, "unit": "%"}, {"measurement": "Positive rate (Blood cells (fresh blood))", "setting": "[1]; [4]", "value": 4.8, "unit": "%"}, {"measurement": "Negative rate (Blood cells (fresh blood))", "setting": "[1]; [5]", "value": 95.2, "unit": "%"}, {"measurement": "Positive rate (Blood cells (fresh blood))", "setting": "[1]; [5]", "value": 4.8, "unit": "%"}, {"measurement": "Negative rate (Blood cells (fresh blood))", "setting": "[1]; [6]", "value": 95.2, "unit": "%"}, {"measurement": "Positive rate (Blood cells (fresh blood))", "setting": "[1]; [6]", "value": 4.8, "unit": "%"}, {"measurement": "Negative rate (Blood cells (fresh blood))", "setting": "[1]; [7]", "value": 95.2, "unit": "%"}, {"measurement": "Positive rate (Blood cells (fresh blood))", "setting": "[1]; [7]", "value": 4.8, "unit": "%"}, {"measurement": "Negative rate (Blood cells (fresh blood))", "setting": "[1]; [8]", "value": 95.6, "unit": "%"}, {"measurement": "Positive rate (Blood cells (fresh blood))", "setting": "[1]; [8]", "value": 4.4, "unit": "%"}, {"measurement": "Negative rate (Blood cells)", "setting": "[1]; [9]", "value": 98, "unit": "%"}, {"measurement": "Positive rate (Blood cells)", "setting": "[1]; [9]", "value": 2, "unit": "%"}, {"measurement": "Negative rate (Blood cells)", "setting": "[1]; [10]", "value": 93, "unit": "%"}, {"measurement": "Positive rate (Blood cells)", "setting": "[1]; [10]", "value": 7, "unit": "%"}, {"measurement": "Negative rate (Blood cells)", "setting": "[1]; [11]", "value": 87, "unit": "%"}, {"measurement": "Positive rate (Blood cells)", "setting": "[1]; [11]", "value": 13, "unit": "%"}, {"measurement": "Negative rate (Blood cells)", "setting": "[1]; [12]", "value": 98, "unit": "%"}, {"measurement": "Positive rate (Blood cells)", "setting": "[1]; [12]", "value": 2, "unit": "%"}, {"measurement": "Negative rate (Blood cells)", "setting": "[1]; [13]", "value": 98, "unit": "%"}, {"measurement": "Positive rate (Blood cells)", "setting": "[1]; [13]", "value": 2, "unit": "%"}, {"measurement": "Negative rate (Blood cells)", "setting": "[1]; [14]", "value": 88, "unit": "%"}, {"measurement": "Positive rate (Blood cells)", "setting": "[1]; [14]", "value": 12, "unit": "%"}, {"measurement": "Negative rate (Blood cells)", "setting": "[1]; [15]", "value": 98, "unit": "%"}, {"measurement": "Positive rate (Blood cells)", "setting": "[1]; [15]", "value": 2, "unit": "%"}, {"measurement": "Negative rate (Blood cells)", "setting": "[1]; [16]", "value": 100, "unit": "%"}, {"measurement": "Positive rate (Blood cells)", "setting": "[1]; [16]", "value": 0, "unit": "%"}, {"measurement": "Negative rate (Blood cells)", "setting": "[1]; [17]", "value": 94, "unit": "%"}, {"measurement": "Positive rate (Blood cells)", "setting": "[1]; [17]", "value": 6, "unit": "%"}, {"measurement": "Negative rate (Blood cells)", "setting": "[1]; [18]", "value": 98, "unit": "%"}, {"measurement": "Positive rate (Blood cells)", "setting": "[1]; [18]", "value": 2, "unit": "%"}, {"measurement": "Negative rate (Blood cells)", "setting": "[1]; [19]", "value": 99, "unit": "%"}, {"measurement": "Positive rate (Blood cells)", "setting": "[1]; [19]", "value": 1, "unit": "%"}, {"measurement": "Negative rate (Blood cells)", "setting": "[1]; [20]", "value": 93, "unit": "%"}, {"measurement": "Positive rate (Blood cells)", "setting": "[1]; [20]", "value": 7, "unit": "%"}, {"measurement": "Negative rate (Blood cells)", "setting": "[1]; [21]", "value": 98, "unit": "%"}, {"measurement": "Positive rate (Blood cells)", "setting": "[1]; [21]", "value": 2, "unit": "%"}, {"measurement": "Negative rate (Blood cells)", "setting": "[1]; [22]", "value": 100, "unit": "%"}, {"measurement": "Positive rate (Blood cells)", "setting": "[1]; [22]", "value": 0, "unit": "%"}, {"measurement": "Negative rate (Blood cells)", "setting": "[1]; [23]", "value": 100, "unit": "%"}, {"measurement": "Positive rate (Blood cells)", "setting": "[1]; [23]", "value": 0, "unit": "%"}, {"measurement": "Negative rate (Blood cells)", "setting": "[1]; [24]", "value": 98, "unit": "%"}, {"measurement": "Positive rate (Blood cells)", "setting": "[1]; [24]", "value": 2, "unit": "%"}, {"measurement": "Negative rate (Blood cells)", "setting": "[1]; [25]", "value": 99, "unit": "%"}, {"measurement": "Positive rate (Blood cells)", "setting": "[1]; [25]", "value": 1, "unit": "%"}, {"measurement": "Negative rate (Blood cells)", "setting": "[1]; [26]", "value": 86, "unit": "%"}, {"measurement": "Positive rate (Blood cells)", "setting": "[1]; [26]", "value": 14, "unit": "%"}, {"measurement": "reactivity of aminolevulinic acid (fluorescence values of the cell suspension)", "setting": "[2]; 15 to 90 minutes, Dulbecco's PBS (+) containing Mg and Ca ions versus PBS (−), FIG. 7", "value": "can be improved"}, {"measurement": "reactivity of aminolevulinic acid (fluorescence values of the cell suspension)", "setting": "[2]; Dulbecco's PBS (+) with Mg and Ca ions plus 10 μM ENDO-PORTER, FIG. 8", "value": "further improves the reactivity"}]}]}
